According to patent publication US7456197B2, “Pyridinium cationic lipids as gene transfer agents” (The Texas A&M University System, priority 2003, dated 2008):

Assay: Critical (phase transition) temperature Tc by differential scanning calorimetry
Type: physicochemical
Conditions: for Tc (phase transition temperature): lipids 21 and 25, DSC, heating rate 5° C./minute; for Tc (critical temperature), Pure: pure lipid
Method: General. Melting points for the diols and the phase transition temperature Tc for the cationic lipids were determined by differential scanning calorimetry (DSC), using a TA-Instruments Q100 DSC, and a heating rate of 5° C./minute. The IR spectra were recorded on a Nicolet Avatar 360 FTIR spectrophotometer in the range 650-4000 cm^−1 using a ZnSe—attenuated total reflectance (ATR) accessory. The compounds were solved in a small amount of solvent (MeOH for the diols, CHCl3 for the lipids), and the resulted solutions were left to evaporate to dryness on the surface of the ZnSe crystals of the ATR accessory. The NMR spectra were recorded at ≈303 K with a Varian Inova spectrometer equipped with a 5 mm indirect detection probe, operating at 500 MHz for ^1H-NMR and at 125 MHz for ^13C-NMR. Chemical shifts are reported as δ values, using TMS as internal standard for proton spectra and the solvent resonance for carbon spectra. Assignments were made based on signal intensity, selective decoupling, COSY (^1H-^1H) and HETCOR (^1H-^13C) sequences. Elemental analyses were performed by combustion, using a Perkin Elmer 2400 Series II CHNS analyser.
Dioleoylphosphatidylethanolamine (DOPE), cholesterol (CHOL), N-(2,3-dioleoyloxypropyl)-N,N,N-trimethylammonium chloride (DOTAP) were commercial products. The purity of the lipids was checked by thin layer chromatography and also by differential scanning calorimetry (DSC), which was also used for determining the critical temperature Tc. For the preparation of the liposomes a protocol optimized for this type of compounds was adopted as follows. The cationic lipid (with or without helper lipid) was dissolved in chloroform/methanol (2/1, v/v) to reach a final concentration of 1 mM for the charged species. From this stock solution 50 μL were aliquoted in a 1 mL tube and the solvent was evaporated in a SpeedVac evaporator, under vacuum, for 1 h. The dried lipid film was prepared by removing the traces of organic solvent in a dessicator, over Drierite®, under vacuum, overnight. The film was hydrated with 500 μL sterile phosphate buffer saline (PBS) the tube was purged with sterile N2, and vortexed for 1 minute. The liposomes were generated by sonicating the tube in a water bath sonicator for 5-30 minutes at 62° C. and at 37° C. for DOTAP. After sonication the preparations were allowed to reach room temperature.
Materials and Methods. Melting points for the diols, acetates and ketals were determined on a Boetius heating plate microscope and are uncorrected. For the cationic lipids 21 and 25 the phase transition temperature Tc was determined by differential scanning calorimetry (DSC), using a TA-Instruments Q100 DSC, and a heating rate of 5° C./minute. The IR spectra were recorded on a Nicolet Avatar 360 FTIR spectrophotometer, in the range 650-4000 cm^−1, using a ZnSe—attenuated total reflectance (ATR) accessory. The compounds were solved in a small amount of solvent (MeOH for the diols, CHCl3 for the esters), the resulted solutions being left to evaporate to dryness on the surface of the ZnSe crystals of the ATR accessory. This technique was imposed by the poor results obtained in transmission mode for some of the compounds, due to the lack of crystallization, hygroscopicity and other problems related with working with KBr pellets. The NMR spectra were recorded at ≈303 K with a Varian Gemini 300BB spectrometer operating at 300 MHz for ^1H and at 75 MHz for ^13C. Chemical shifts are reported as δ values, using TMS as internal standard for proton spectra and the solvent resonance for carbon spectra: 77.00 ppm in CDCl3, 39.50 ppm in DMSO-d6, the line from 123.50 ppm in pyridine-d5, 62.80 ppm in nitromethane-d3, 30.10 ppm in dimethylformamide-d7. Assignments were made based on signal intensity, selective decoupling and COSY (^1H-^1H) and HETCOR (^1H-^13C) sequences. Nitrogen elemental analysis was performed by combustion, mixing the samples with small amounts of quartz sand.

Compound	Tc (phase transition temperature)	Tc (critical temperature), Pure	Tc (critical temperature), With cholesterol (1:1 molar ratio)
CCCCCCCC/C=C\CCCCCCCC(=O)OCC(C[n+]1c(C)cc(C)cc1C)OC(=O)CCCCCCC/C=C\CCCCCCCC.F[B-](F)(F)F (stereo not shown) [Lipid 21AbO, 1-(2,3-Dioleoyloxypropyl)-2,4,6-trimethylpyridinium tetrafluoroborate]	52 °C		
CCCCCCCCCCCCCCCCCC(=O)OCC(COC(=O)CCCCCCCCCCCCCCCCC)[n+]1c(C)cc(C)cc1C.F[B-](F)(F)F [Lipid 25AbS, 1-(1,3-Distearoyloxypropane-2yl)-2,4,6-trimethylpyridinium tetrafluoroborate]	73 °C		
CCCCCCCCCCCCCCCC(=O)OCC(COC(=O)CCCCCCCCCCCCCCC)[n+]1c(-c2ccccc2)cc(-c2ccccc2)cc1-c1ccccc1.[O-][Cl+3]([O-])([O-])[O-] [Lipid 25BaP, 1-(1,3-Dipalmitoyloxypropane-2-yl)-2,4,6-triphenylpyridinium perchlorate]	125 °C		
CCCCCCCC/C=C\CCCCCCCC(=O)OCC(COC(=O)CCCCCCC/C=C\CCCCCCCC)[n+]1c(C)cc(C)cc1C.F[B-](F)(F)F [Lipid 25AbO, 1-(1,3-Dioleoyloxypropane-2-yl)-2,4,6-trimethylpyridinium tetrafluoroborate]	43 °C		
CCCCCCCCCC(=O)Oc1ccc(CC[n+]2c(C)cc(C)cc2C)cc1OC(=O)CCCCCCCCC.F[P-](F)(F)(F)(F)F [Lipid 7ACpc, 1-(3,4-didecanoyloxyphenylethyl)-2,4,6-trimethylpyridinium hexafluorophosphate]		140.0 °C	129.2 °C
CCCCCCCC(=O)Oc1ccc(CC[n+]2c(C)cc(C)cc2C)cc1OC(=O)CCCCCCC.F[P-](F)(F)(F)(F)F [Lipid 7ACpy, 1-(3,4-dioctanoyloxyphenylethyl)-2,4,6-trimethylpyridinium hexafluorophosphate]		134.1 °C	127.3 °C
CCCCCCCCCCCCCCCCCC(=O)OCC(COC(=O)CCCCCCCCCCCCCCCCC)[n+]1c(C)cc(C)cc1C.[O-][Cl+3]([O-])([O-])[O-] [Lipid 25AaS, 1-(1,3-Distearoyloxypropane-2-yl)-2,4,6-trimethylpyridinium perchlorate]	70 °C		
CCCCCCCCCCCCCCCC(=O)OCC(C[n+]1c(C)cc(C)cc1C)OC(=O)CCCCCCCCCCCCCCC.[O-][Cl+3]([O-])([O-])[O-] (stereo not shown) [Lipid 21AaP, 1-(2,3-Dipamitoyloxypropyl)-2,4,6-trimethylpyridinium perchlorate]	106 °C		
CCCCCCCCCCCCCCCCCC(=O)OCC(COC(=O)CCCCCCCCCCCCCCCCC)[n+]1c(C)cc(C)cc1C.F[P-](F)(F)(F)(F)F [Lipid 5ASte, 1-(1,3-distearoyloxypropane-2-yl)-2,4,6-trimethylpyridinium hexafluorophosphate]		79.6 °C	66.1 °C
CCCCCCCCCCCCCCCCCC(=O)Oc1ccc(CC[n+]2c(C)cc(C)cc2C)cc1OC(=O)CCCCCCCCCCCCCCCCC.F[P-](F)(F)(F)(F)F [Lipid 7ASte, 1-(3,4-distearoyloxyphenylethyl)-2,4,6-trimethylpyridinium hexafluorophosphate]		138.8 °C	123.9 °C
CCCCCCCCCCCCCCCCCC(=O)OCC(C[n+]1c(C)cc(C)cc1C)OC(=O)CCCCCCCCCCCCCCCCC.[O-][Cl+3]([O-])([O-])[O-] (stereo not shown) [Lipid 21AaS, 1-(2,3-Distearoyloxypropyl)-2,4,6-trimethylpyridinium perchlorate]	110 °C		
CCCCCCCCCCCCCC(=O)Oc1ccc(CC[n+]2c(C)cc(C)cc2C)cc1OC(=O)CCCCCCCCCCCCC.F[P-](F)(F)(F)(F)F [Lipid 7AMyr, 1-(3,4-dimyristoyloxyphenylethyl)-2,4,6-trimethylpyridinium hexafluorophosphate]		141.2 °C	125.8 °C
CCCCCCCCCCCC(=O)OCC(COC(=O)CCCCCCCCCCC)[n+]1c(C)cc(C)cc1C.F[P-](F)(F)(F)(F)F [Lipid 5ALau, 1-(1,3-dilauroyloxypropane-2-yl)-2,4,6-trimethylpyridinium hexafluorophosphate]		58.2 °C	41.9 °C
CCCCCCCC/C=C\CCCCCCCC(=O)OCC(C[n+]1c(C)cc(C)cc1C)OC(=O)CCCCCCC/C=C\CCCCCCCC.[O-][Cl+3]([O-])([O-])[O-] (stereo not shown) [Lipid 21AaO, 1-(2,3-Dioleoyloxypropyl)-2,4,6-trimethylpyridinium perchlorate]	57 °C		
CCCCCCCCCCCCCCCC(=O)OCC(C[n+]1c(-c2ccccc2)cc(-c2ccccc2)cc1-c1ccccc1)OC(=O)CCCCCCCCCCCCCCC.[O-][Cl+3]([O-])([O-])[O-] (stereo not shown) [Lipid 21BaP, 1-(2,3-Dipalmitoyloxypropyl)-2,4,6-triphenylpyridinium perchlorate]	134 °C		
CCCCCCCC/C=C\CCCCCCCC(=O)OCC(COC(=O)CCCCCCC/C=C\CCCCCCCC)[n+]1c(C)cc(C)cc1C.[O-][Cl+3]([O-])([O-])[O-] [Lipid 25AaO, 1-(1,3-Dioleoyloxypropane-2-yl)-2,4,6-trimethylpyridinium perchlorate]	48 °C		
CCCCCCCCCCCCCCCC(=O)OCC(C[n+]1c(C)cc(C)cc1C)OC(=O)CCCCCCCCCCCCCCC.F[B-](F)(F)F (stereo not shown) [Lipid 21AbP, 1-(2,3-Dipamitoyloxypropyl)-2,4,6-trimethylpyridinium tetrafluoroborate]	100 °C		
CCCCCCCCCCCCCCCC(=O)Oc1ccc(CC[n+]2c(C)cc(C)cc2C)cc1OC(=O)CCCCCCCCCCCCCCC.F[P-](F)(F)(F)(F)F [Lipid 7APal, 1-(3,4-dipalmitoyloxyphenylethyl)-2,4,6-trimethylpyridinium hexafluorophosphate]		140.0 °C	124.1 °C
CCCCCCCCCCCCCCCCCC(=O)OCC(C[n+]1c(C)cc(C)cc1C)OC(=O)CCCCCCCCCCCCCCCCC.F[B-](F)(F)F (stereo not shown) [Lipid 21AbS, 1-(2,3-Distearoyloxypropyl)-2,4,6-trimethylpyridinium tetrafluoroborate]	103 °C		
CCCCCCCCCCCC(=O)OCC(C[n+]1c(C)cc(C)cc1C)OC(=O)CCCCCCCCCCC.F[P-](F)(F)(F)(F)F (stereo not shown) [Lipid 3ALau, 1-(2,3-dilauroyloxypropyl)-2,4,6-trimethylpyridinium hexafluorophosphate]		114.0 °C	106.7 °C
CCCCCCCCCCCCCCCC(=O)OCC(COC(=O)CCCCCCCCCCCCCCC)[n+]1c(C)cc(C)cc1C.[O-][Cl+3]([O-])([O-])[O-] [Lipid 25AaP, 1-(1,3-Dipamitoyloxypropane-2-yl)-2,4,6-trimethylpyridinium perchlorate]	66 °C		
CCCCCCCCCCCCCCCC(=O)OCC(C[n+]1c(C)cc(C)cc1C)OC(=O)CCCCCCCCCCCCCCC.F[P-](F)(F)(F)(F)F (stereo not shown) [Lipid 3APal, 1-(2,3-dipamitoyloxypropyl)-2,4,6-trimethylpyridinium hexafluorophosphate]		123.5 °C	114.0 °C
